Measurements published in ChEMBL document CHEMBL6071153, “Design, synthesis, and evaluation of antitumor activity in Pseudolaric acid B Azole derivatives: Novel and potent angiogenesis inhibitor via regulation of the PI3K/AKT and MAPK mediated HIF-1/VEGF signaling pathway” (Eur J Med Chem, 2024).
Calls of active or inactive are those of the source. The rule behind the calls is not given here.

Tests used:
[1] = tested on: SiHa; experiment: Cytotoxicity against human SiHa cells assessed as inhibition of cell growth incubated for 24 hrs under normoxic condition by MTT assay; assay type: functional, cell-based
[2] = Inhibition of VEGFR mediated endocytosis in human SiHa cells incubated for 24 hrs under hypoxic condition by ELISA; assay type: cell-based
[3] = tested on: SiHa; experiment: Inhibition of hypoxia-induced HIF-1beta accumulation in human SiHa cells at 10 uM incubated for 24 hrs under hypoxic condition by Western blotting analysis; assay type: functional, cell-based
[4] = Toxicity in Balb/c mouse assessed as change in animal fur at 50 mg/kg,ip administration for 1 week; assay type: organism-based; details: in vivo, 168 h, time 1 weeks
[5] = tested on: HUVEC; experiment: Antiangiogenic activity against human HUVEC cells assessed as inhibition of blood vessel formation at 10 uM incubated for 4 hrs under hypoxic condition by fluorescence microscopic analysis; assay type: functional, cell-based
[6] = Toxicity in Balb/c mouse assessed as fatality at 50 mg/kg,ip administration for 1 week; assay type: organism-based; details: in vivo, 168 h, time 1 weeks
[7] = tested on: SiHa; experiment: Antitumor activity against human SiHa cells xenografted in Balb/c mouse assessed as reduction in tumor growth at 30 mg/kg,ip administration measured after 22 days; assay type: functional, organism-based; details: time 22.0 day
[8] = tested on: HUVEC; experiment: Inhibition of cell migration in human HUVEC cells at 10 uM incubated for 48 hrs under hypoxic condition by microscopic analysis relative to M2; assay type: functional, cell-based
[9] = tested on: SiHa; experiment: Antitumor activity against human SiHa cells xenografted in Balb/c mouse assessed as reduction in tumor weight at 30 mg/kg,ip administration measured after 22 days; assay type: functional, organism-based; details: time 22.0 day
[10] = tested on: HUVEC; experiment: Inhibition of cell migration in human HUVEC cells at 10 uM incubated for 48 hrs under hypoxic condition by microscopic analysis relative to PAB; assay type: functional
[11] = tested on: SiHa; experiment: Antitumor activity against human SiHa cells xenografted in Balb/c mouse assessed as reduction in tumor volume at 30 mg/kg,ip administration measured after 22 days; assay type: functional, organism-based; details: time 22.0 day
[12] = Toxicity in Balb/c mouse xenografted with human SiHa cells assessed as reduction in body weight at 30 mg/kg,ip administration measured after 22 days; assay type: organism-based; details: in vivo, 528 h, time 22 day
[13] = tested on: SiHa; experiment: Inhibition of VEGFR in human SiHa cells assessed as decrease in intracellular VEGFR protein expression at 10 uM incubated for 24 hrs under hypoxic condition by immunofluorescence staining based analysis relative to M2; assay type: cell-based
[14] = Inhibition of PI3K/AKT/mTOR signalling pathway in human SiHa cells assessed as downregulation of JNK phosphorylation at 10 uM incubated for 24 hrs under hypoxic condition by Western blotting analysis; assay type: cell-based
[15] = tested on: SiHa; experiment: Inhibition of hypoxia-induced HIF-1alpha accumulation in human SiHa cells at 10 uM incubated for 24 hrs under hypoxic condition by Western blotting analysis; assay type: functional, cell-based
[16] = Inhibition of HIF-1 transcriptional activity in human HCT-116 cells preincubated for 1 hr under normoxic condition followed by 24 hrs incubation under hypoxic condition by luciferase reporter assay; assay type: cell-based

SMILES | IC50 [1] [µM] | IC50 [2] [µM] | other results
COC(=O)C1=CC[C@@]23CC[C@@H]([C@@](C)(/C=C/C=C(\C)C(=O)OCc4cc(-c5ccc(OC)cc5)no4)OC2=O)[C@@]3(OC(C)=O)CC1 | > 30 | > 5 | –
COC(=O)C1=CC[C@@]23CC[C@@H]([C@@](C)(/C=C/C=C(\C)C(=O)O)OC2=O)[C@@]3(OC(C)=O)CC1 [PSEUDOLARIC ACID B] | > 30 | 5.54 | inhibition [3]: Active; Activity [4]: Non-Toxic; Activity [5]: Active; Activity [6]: Non-Toxic; Activity [7]: Active; inhibition [8]: Active; Activity [9]: Active; inhibition at 10 µM [10]: 68.5%; Activity [11]: Active; Activity [12]: Non-Toxic; inhibition [13]: Active; inhibition [14]: inactive; inhibition [15]: Active
CN1CCN(CCOc2cccc(Cn3nc(-c4nc(-c5ccc(OC(F)(F)F)cc5)no4)c4ccccc43)c2)CC1 | – | – | IC50 [16]: 0.62 µM
COC(=O)C1=CC[C@@]23CC[C@@H]([C@@](C)(/C=C/C=C(\C)C(=O)OCc4nnc(-c5ccc(Cl)cc5)o4)OC2=O)[C@@]3(OC(C)=O)CC1 | > 30 | > 5 | –
COC(=O)C1=CC[C@@]23CC[C@@H]([C@@](C)(/C=C/C=C(\C)C(=O)OCc4nnc(-c5ccccc5)o4)OC2=O)[C@@]3(OC(C)=O)CC1 | > 30 | > 5 | –
C[C@H]1[C@H](C)CC[C@]2(C(=O)OCCCn3ncn(-c4ccccc4)c3=O)CC[C@]3(C)C(=CC[C@@H]4[C@@]5(C)CCC(O)C(C)(C)[C@@H]5CC[C@]43C)[C@H]12 (stereo partly specified) | – | – | IC50 [16]: 36.9 µM
COC(=O)C1=CC[C@@]23CC[C@@H]([C@@](C)(/C=C/C=C(\C)C(=O)NCc4cn(-c5ccc(Cl)cc5)nn4)OC2=O)[C@@]3(OC(C)=O)CC1 | > 30 | 3.74 | –
COC(=O)C1=CC[C@@]23CC[C@@H]([C@@](C)(/C=C/C=C(\C)C(=O)OCc4cc(-c5ccccc5)no4)OC2=O)[C@@]3(OC(C)=O)CC1 | > 30 | > 5 | –
COC(=O)C1=CC[C@@]23CC[C@@H]([C@@](C)(/C=C/C=C(\C)C(=O)NCc4cn(-c5ccc(OC)cc5)nn4)OC2=O)[C@@]3(OC(C)=O)CC1 | > 30 | 5.06 | –
COC(=O)C1=CC[C@@]23CC[C@@H]([C@@](C)(/C=C/C=C(\C)C(=O)OCCn4ncn(-c5ccc(F)cc5)c4=O)OC2=O)[C@@]3(OC(C)=O)CC1 | > 30 | 2.38 | –
COC(=O)C1=CC[C@@]23CC[C@@H]([C@@](C)(/C=C/C=C(\C)C(=O)OCC(=O)Nc4ccc(OC)cc4)OC2=O)[C@@]3(OC(C)=O)CC1 | > 30 | 1.86 | –
COC(=O)C1=CC[C@@]23CC[C@@H]([C@@](C)(/C=C/C=C(\C)C(=O)NCc4cn(-c5ccc(Cl)c(Cl)c5)nn4)OC2=O)[C@@]3(OC(C)=O)CC1 | > 30 | > 5 | –
COC(=O)C1=CC[C@@]23CC[C@@H]([C@@](C)(/C=C/C=C(\C)C(=O)OCc4cn(Cc5cc(OC)c(OC)c(OC)c5)nn4)OC2=O)[C@@]3(OC(C)=O)CC1 | > 30 | 2.3 | –
COC(=O)C1=CC[C@@]23CC[C@@H]([C@@](C)(/C=C/C=C(\C)C(=O)OCc4nnc(-c5ccc(OC)cc5)o4)OC2=O)[C@@]3(OC(C)=O)CC1 | > 30 | > 5 | –
COC(=O)C1=CC[C@@]23CC[C@@H]([C@@](C)(/C=C/C=C(\C)C(=O)OCC(=O)NCc4cn(-c5ccc(OC)cc5)nn4)OC2=O)[C@@]3(OC(C)=O)CC1 | > 30 | 3.4 | –
COC(=O)C1=CC[C@@]23CC[C@@H]([C@@](C)(/C=C/C=C(\C)C(=O)NCc4cn(-c5ccc(F)cc5)nn4)OC2=O)[C@@]3(OC(C)=O)CC1 | > 30 | 4.14 | –
COC(=O)C1=CC[C@@]23CC[C@@H]([C@@](C)(/C=C/C=C(\C)C(=O)OCc4cn(-c5ccccc5)nn4)OC2=O)[C@@]3(OC(C)=O)CC1 | > 30 | > 5 | –
COC(=O)C1=CC[C@@]23CC[C@@H]([C@@](C)(/C=C/C=C(\C)C(=O)OCc4cn(Cc5ccc(OC)cc5)nn4)OC2=O)[C@@]3(OC(C)=O)CC1 | > 30 | 1.75 | –
COC(=O)C1=CC[C@@]23CC[C@@H]([C@@](C)(/C=C/C=C(\C)C(=O)OCc4cn(Cc5ccc(F)cc5)nn4)OC2=O)[C@@]3(OC(C)=O)CC1 | > 30 | 3.89 | –
COC(=O)C1=CC[C@@]23CC[C@@H]([C@@](C)(/C=C/C=C(\C)C(=O)OCC(=O)Nc4ccc(Cl)cc4)OC2=O)[C@@]3(OC(C)=O)CC1 | > 30 | 4.38 | –
COC(=O)C1=CC[C@@]23CC[C@@H]([C@@](C)(/C=C/C=C(\C)C(=O)OCc4cn(Cc5ccc(Cl)cc5)nn4)OC2=O)[C@@]3(OC(C)=O)CC1 | > 30 | 1.43 | –

SMILES | IC50 [1] [µM] | IC50 [2] [µM] | other results
COC(=O)C1=CC[C@@]23CC[C@@H]([C@@](C)(/C=C/C=C(\C)C(=O)OCc4nc(-c5ccc(OC)cc5)no4)OC2=O)[C@@]3(OC(C)=O)CC1 | > 30 | 4.16 | –
COC(=O)C1=CC[C@@]23CC[C@@H]([C@@](C)(/C=C/C=C(\C)C(=O)OCc4nc(-c5ccc(Cl)c(Cl)c5)no4)OC2=O)[C@@]3(OC(C)=O)CC1 | > 30 | 3.03 | –
COC(=O)C1=CC[C@@]23CC[C@@H]([C@@](C)(/C=C/C=C(\C)C(=O)OCC(=O)NCc4cn(-c5ccccc5)nn4)OC2=O)[C@@]3(OC(C)=O)CC1 | > 30 | 2.8 | –
COC(=O)C1=CC[C@@]23CC[C@@H]([C@@](C)(/C=C/C=C(\C)C(=O)OCc4nc(-c5ccc(Cl)cc5)no4)OC2=O)[C@@]3(OC(C)=O)CC1 | > 30 | 1.51 | –
COC(=O)C1=CC[C@@]23CC[C@@H]([C@@](C)(/C=C/C=C(\C)C(=O)OCc4cn(Cc5ccccc5)nn4)OC2=O)[C@@]3(OC(C)=O)CC1 | > 30 | > 5 | –
COC(=O)C1=CC[C@@]23CC[C@@H]([C@@](C)(/C=C/C=C(\C)C(=O)OCCn4ncn(-c5ccc(Cl)cc5)c4=O)OC2=O)[C@@]3(OC(C)=O)CC1 | > 30 | 1.86 | –
COC(=O)C1=CC[C@@]23CC[C@@H]([C@@](C)(/C=C/C=C(\C)C(=O)OCCn4ncn(-c5ccccc5)c4=O)OC2=O)[C@@]3(OC(C)=O)CC1 | > 30 | 4.03 | –
COC(=O)C1=CC[C@@]23CC[C@@H]([C@@](C)(/C=C/C=C(\C)C(=O)OCc4cn(-c5ccc(OC)cc5)nn4)OC2=O)[C@@]3(OC(C)=O)CC1 | > 30 | 2.18 | –
O=c1[nH]cc(F)c(=O)[nH]1 [FLUOROURACIL] | – | – | Activity [12]: Non-Toxic
COC(=O)C1=CC[C@@]23CC[C@@H]([C@@](C)(/C=C/C=C(\C)C(=O)NCc4cn(-c5ccccc5)nn4)OC2=O)[C@@]3(OC(C)=O)CC1 | > 30 | 2.91 | –
COC(=O)C1=CC[C@@]23CC[C@@H]([C@@](C)(/C=C/C=C(\C)C(=O)OCc4cc(-c5ccc(Cl)cc5)no4)OC2=O)[C@@]3(OC(C)=O)CC1 | > 30 | 4.44 | –
COC(=O)C1=CC[C@@]23CC[C@@H]([C@@](C)(/C=C/C=C(\C)C(=O)OCc4nc(-c5ccccc5)no4)OC2=O)[C@@]3(OC(C)=O)CC1 | > 30 | 2 | –
COC(=O)C1=CC[C@@]23CC[C@@H]([C@@](C)(/C=C/C=C(\C)C(=O)OCCn4ncn(-c5ccc(OC)c(OC)c5)c4=O)OC2=O)[C@@]3(OC(C)=O)CC1 | > 30 | > 5 | –
COC(=O)C1=CC[C@@]23CC[C@@H]([C@@](C)(/C=C/C=C(\C)C(=O)OCc4cn(-c5ccc(Cl)cc5)nn4)OC2=O)[C@@]3(OC(C)=O)CC1 | > 30 | 2.15 | –
COC(=O)C1=CC[C@@]23CC[C@@H]([C@@](C)(/C=C/C=C(\C)C(=O)OCC(=O)Nc4ccccc4)OC2=O)[C@@]3(OC(C)=O)CC1 | > 30 | 4.03 | –
COC(=O)C1=CC[C@@]23CC[C@@H]([C@@](C)(/C=C/C=C(\C)C(=O)OCc4nc(-c5ccc(Cn6cncn6)cc5)no4)OC2=O)[C@@]3(OC(C)=O)CC1 | > 30 | > 5 | –
COC(=O)C1=CC[C@@]23CC[C@@H]([C@@](C)(/C=C/C=C(\C)C(=O)OCc4cn(Cc5ccc(Cl)c(Cl)c5)nn4)OC2=O)[C@@]3(OC(C)=O)CC1 | > 30 | 2.79 | –
OC1CCN(CCOc2cccc(Cn3nc(-c4nc(-c5ccc(OC(F)(F)F)cc5)no4)c4ccccc43)c2)CC1 | – | – | IC50 [16]: 0.55 µM
COC(=O)C1=CC[C@@]23CC[C@@H]([C@@](C)(/C=C/C=C(\C)C(=O)OCCn4ncn(-c5ccc(OC)cc5)c4=O)OC2=O)[C@@]3(OC(C)=O)CC1 | > 30 | > 5 | –
COC(=O)C1=CC[C@@]23CC[C@@H]([C@@](C)(/C=C/C=C(\C)C(=O)OCCn4ncn(-c5ccc(Cl)c(Cl)c5)c4=O)OC2=O)[C@@]3(OC(C)=O)CC1 | > 30 | 1.17 | –
